# In US20190022135A1, “TREATMENT FOR CHITIN-CONTAINING MICROORGANISMS” (Benchmark Animal Health Limited, priority 2016, published 2019):
# Assays:
# Saprolegnia spores = assay: Saprolegnia spore viability in biofilms (CellTiter 96 MTS assay); assay type: cell-based; conditions: 4 h
# Protocol: The effect of treating Saprolegnia-spores with combinations of boric acid and propionic acid was investigated in biofilm preparations since this is one of the most challenging conditions under which effects can be tested.
# Spores were produced to form biofilms. Saprolegnia hyphae were excised from GY agar plates and then incubated in GY broth (15±1° C., 2 days), giving additional hyphal growth. Young hyphae were washed in SAW, transferred to two glass bottles containing one liter of SAW and incubated at 21±1° C. (24 h) to allow zoospore production. Suspensions of zoospores were filtered (tea filter, 0.5 mm pores) resulting in zoospore encystment. Cysts were counted by hemocytometer, the cyst suspensions were adjusted to 1.0±104 spores/L. The suspension was then used in the biofilm formation studies (chambered cover glass system) within 3 h of counting.
# Treatment with BA and/or PA was for 4 hours in stagnate, aerated water after which the water circulation was resumed. Biofilm preparations were tested for viability as described (Ali et al. 2014). In brief, CellTiter 96 aqueous one solution cell proliferation assay (Promega) was used. The test is based on tetrazolium compound [3-(4,5-dimethylthiazol-2-yl)-5-(3-carboxy-methoxyphenyl)-2-(4-sulfophenyl)-2H-tetrazolium, inner salt; MTS] being reduced by viable cells resulting in the formation of formazan products from MTS. The reaction is based on mitochondrial enzymes being active (dehydrogenase) (Lopes et al. 2013), and is an indicator of metabolic rate of the mitochondria.
# Tests were run in 72-well plates with biofilm formed in the wells. BA and/or PA was then added to each tested well (except controls) at increasing concentrations, 1-4 g/L for BA and 31.4 to 125.6 mM/L for PA. Bronopol was used as a positive treatment but at 300 mg/L concentration, and SAW as negative control. Wells with the MTS reagent without spores were used as a background control. The plates were incubated at 15-20° C. Reading was done following 4 h incubation of BA and PA. Formazan product was measured at 490 nm. MTS reduction is proportional to the number and activity of live spores. Spore viability was calculated by: % viability=100×(OD490 value for the sample−mean background OD490)/(mean OD490 for non-treated water control−mean background OD490).
# Saprolegnia sp. = assay: Effect on Saprolegnia zoospores, spores and hyphae (stated finding)
# sea lice = assay: In vivo studies: number of attached sea lice after treatment; conditions: 2.75 ppm/L PA only, 15 min exposure, 4 days post treatment
# Protocol: Water salinity: […]; Temperature: 8.5° C.; Oxygen: minimum 8 mg/L in water during treatment (8-10 mg/L measured).
# [1] = test system: eggs and/or fry of Atlantic salmon; conditions: 50 mg/L treatment for 1 h; cited from earlier work
structure (smiles),measurement,setting,value
"OB(O)O [BA, boric acid]",viability (OD value),"Saprolegnia spores; BA from 1 g/L up to 4 g/L, biofilm",declining viability
same,effect on zoospore production and release and on zoosporangia,Saprolegnia sp.,interferes with the production and subsequent release of zoospores
"CCC(=O)O [PA, propionic acid]",viability (OD value),"Saprolegnia spores; PA 4 ml added (equivalent to 125.6 mM/L), biofilm",lower OD value
same,"viability, statistical evaluation against 4 g/L of BA",Saprolegnia spores; PA (4 ml),significantly lower viability
same,reduction of the number of attached sea lice,sea lice,Reduced the number of attached sea lice by 30%
same,effect on spores and hyphae,Saprolegnia sp.,direct toxic effect
"O=[N+]([O-])C(Br)(CO)CO [Pyzece, Bronopol]",viability level (OD value),"Saprolegnia spores; 300 mg/L, biofilm, compared with BA and PA combination (approx. 0.3)",same viability level
same,egg toxicity,[1],egg mortality
